Assay results reported in patent US9796709B2, “5-hydroxy-4-(trifluoromethyl)pyrazolopyridine derivative” (Daiichi Sankyo Company, Limited, priority 2013, dated 2017).

Target: T1, LCAT (Homo sapiens, UniProt P04180)
T1 construct: The obtained fraction was dialyzed against phosphate-buffered saline (pH 7.4) and used as an enzyme source and an acceptor for LCAT; from tissue; host or cells: HDL3 fraction (1.125 < specific gravity < 1.210 g/mL) of plasma from a healthy person
T1 sequence (P04180 25-440): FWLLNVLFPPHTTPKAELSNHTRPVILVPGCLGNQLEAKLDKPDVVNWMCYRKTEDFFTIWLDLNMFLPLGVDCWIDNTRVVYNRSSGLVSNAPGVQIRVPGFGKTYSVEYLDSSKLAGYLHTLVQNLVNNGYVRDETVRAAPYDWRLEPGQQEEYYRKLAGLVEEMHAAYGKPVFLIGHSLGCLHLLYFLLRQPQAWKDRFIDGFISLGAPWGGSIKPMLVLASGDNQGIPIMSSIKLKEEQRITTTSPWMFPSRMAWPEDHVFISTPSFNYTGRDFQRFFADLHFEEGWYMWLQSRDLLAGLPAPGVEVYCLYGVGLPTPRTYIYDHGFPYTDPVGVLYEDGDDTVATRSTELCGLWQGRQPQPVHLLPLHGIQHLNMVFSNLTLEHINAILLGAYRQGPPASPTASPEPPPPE
Test: LCAT activity measurement (in vitro), [14C]cholesterol esterification with HDL3 fraction
Format: biochemical
Details: HDL3 fraction from plasma of a healthy person as enzyme source and acceptor; 37° C., approximately 16 hours; relative to sample without test drug; read-out: EC50 of LCAT activation
Experimental: A fraction composed of HDL3 (1.125 <specific gravity <1.210 g/mL) was obtained from the plasma of a healthy person by density gradient centrifugation. The obtained fraction was dialyzed against phosphate-buffered saline (pH 7.4) and used as an enzyme source and an acceptor for LCAT. Each test drug was prepared by dissolution in dimethyl sulfoxide. [^14C]Cholesterol containing DTNB (Ellman's reagent, final concentration: 0.5 mM), mercaptoethanol (final concentration: 12.5 mM), and 0.6% bovine serum albumin was added to phosphate-buffered saline (pH 7.4) containing 1 mg/mL HDL3, and the test drug was further added thereto at varying concentrations to adjust the whole amount to 80 μL. This mixture was incubated at 37° C. for approximately 16 hours. Then, a mixed solution of hexane and isopropanol (mixing ratio=3:2) was added thereto to stop the reaction. After stirring, the hexane layer was collected, and this layer was evaporated to dryness. A chloroform solution (concentration: 10 mg/mL) was added thereto, and the mixture was spotted onto a thin-layer silica gel plate and developed using a mixed solution of hexane, diethyl ether, and ethyl acetate (mixing ratio=85:15:2). The radioactivity of a portion corresponding to cholesterol oleate was measured using an imaging analyzer BAS-2500 (manufactured by Fujifilm Corp.). A sample non-supplemented with the test drug was similarly treated and assayed. The EC50 value of LCAT activation was calculated according to the expression given below relative to LCAT activity in the sample non-supplemented with the test drug.
[formula] • wherein X represents the logarithm of the concentration of the test drug; • Y represents the responsiveness (LCAT activity) of the test drug; • Top represents the maximum value (maximum plateau); • Bottom represents the minimum value (minimum plateau); and • EC50 represents the 50% effective concentration.

Structure (SMILES)	EC50
O=C1Nc2[nH]nc(C3CCN(c4nnc(C(F)(F)F)s4)CC3)c2[C@@H](C(F)(F)F)[C@H]1O (single isomer, unassigned) [Example 26, (+)-cis-5-Hydroxy-4-(trifluoromethyl)-3-{1-[5-(trifluoromethyl)-1,3,4-thiadiazol-2-yl]piperidin-4-yl}-1,4,5,7-tetrahydro-6H-pyrazolo[3,4-b]pyridin-6-one]	65 nM
CC(C)Oc1ccc(N2CCC(c3n[nH]c4c3[C@@H](C(F)(F)F)[C@@H](O)C(=O)N4)CC2)nc1 (single isomer, unassigned) [Example 36, (+)-cis-5-Hydroxy-3-[1-(5-isopropoxypyridin-2-yl)piperidin-4-yl]-4-(trifluoromethyl)-1,4,5,7-tetrahydro-6H-pyrazolo[3,4-b]pyridin-6-one]	41 nM
O=C1Nc2[nH]nc(C3CCN(c4ccc(OC(F)F)cn4)CC3)c2[C@@H](C(F)(F)F)[C@H]1O (racemic) [Example 37, cis-3-{1-[5-(Difluoromethoxy)pyridin-2-yl]piperidin-4-yl}-5-hydroxy-4-(trifluoromethyl)-1,4,5,7-tetrahydro-6H-pyrazolo[3,4-b]pyridin-6-one]	94 nM
O=C1Nc2[nH]nc(C3CCN(c4ccc(C(F)(F)F)cn4)CC3)c2C(O)(C(F)(F)F)C1O (stereo not drawn) [Example 4, 4,5-Dihydroxy-4-(trifluoromethyl)-3-{1-[5-(trifluoromethyl)pyridin-2-yl]piperidin-4-yl}-1,4,5,7-tetrahydro-6H-pyrazolo[3,4-b]pyridin-6-one]	22 nM
CC(C)Oc1ccc(N2CCC(c3n[nH]c4c3[C@@H](C(F)(F)F)[C@@H](O)C(=O)N4)CC2)cn1 (single isomer, unassigned) [Example 39, cis-5-hydroxy-3-[1-(6-isopropoxypyridin-3-yl)piperidin-4-yl]-4-(trifluoromethyl)-1,4,5,7-tetrahydro-6H-pyrazolo[3,4-b]pyridin-6-one]	92 nM
Cc1cc(N2CCC(c3n[nH]c4c3[C@@H](C(F)(F)F)[C@@H](O)C(=O)N4)CC2)cnc1C#N (single isomer, unassigned) [Example 27, (+)-5-{4-[cis-5-Hydroxy-6-oxo-4-(trifluoromethyl)-4,5,6,7-tetrahydro-1H-pyrazolo[3,4-b]pyridin-3-yl]piperidin-1-yl}-3-methylpyridine-2-carbonitrile]	37 nM
O=C1Nc2[nH]nc(C3CCN(c4nc(C(F)(F)F)cs4)CC3)c2[C@@H](C(F)(F)F)[C@H]1O (racemic) [Example 15, cis-5-Hydroxy-4-(trifluoromethyl)-3-{1-[4-(trifluoromethyl)-1,3-thiazol-2-yl]piperidin-4-yl}-1,4,5,7-tetrahydro-6H-pyrazolo[3,4-b]pyridin-6-one]	290 nM
CC(C)Oc1ccc(N2CCC(c3n[nH]c4c3[C@@H](C(F)(F)F)[C@@H](O)C(=O)N4)CC2)nn1 (single isomer, unassigned) [Example 41, (+)-cis-5-Hydroxy-3-[1-(6-isopropoxypyridazin-3-yl)piperidin-4-yl]-4-(trifluoromethyl)-1,4,5,7-tetrahydro-6H-pyrazolo[3,4-b]pyridin-6-one]	35 nM
O=C1Nc2[nH]nc(C3CCN(c4ncc(C(F)(F)F)cc4Cl)CC3)c2[C@@H](C(F)(F)F)[C@H]1O (racemic) [Example 14, cis-3-{1-[3-Chloro-5-(trifluoromethyl)pyridin-2-yl]piperidin-4-yl}-5-hydroxy-4-(trifluoromethyl)-1,4,5,7-tetrahydro-6H-pyrazolo[3,4-b]pyridin-6-one]	380 nM
CC(C)c1nc(N2CCC(c3n[nH]c4c3[C@@H](C(F)(F)F)[C@@H](O)C(=O)N4)CC2)cc(C(F)(F)F)n1 (racemic) [Example 9, cis-5-Hydroxy-3-{1-[2-isopropyl-6-(trifluoromethyl)pyrimidin-4-yl]piperidin-4-yl}-4-(trifluoromethyl)-1,4,5,7-tetrahydro-6H-pyrazolo[3,4-b]pyridin-6-one]	27 nM
N#Cc1cncc(N2CCC(c3n[nH]c4c3[C@@H](C(F)(F)F)[C@@H](O)C(=O)N4)CC2)c1 (single isomer, unassigned) [Example 31, (+)-5-{4-[cis-5-Hydroxy-6-oxo-4-(trifluoromethyl)-4,5,6,7-tetrahydro-1H-pyrazolo[3,4-b]pyridin-3-yl]piperidin-1-yl}pyridine-3-carbonitrile]	34 nM
CC(C)Oc1ccc(N2CCC(c3n[nH]c4c3[C@@H](C(F)(F)F)[C@@H](O)C(=O)N4)CC2)nc1 (racemic) [Example 5, cis-5-Hydroxy-3-[1-(5-isopropoxypyridin-2-yl)piperidin-4-yl]-4-(trifluoromethyl)-1,4,5,7-tetrahydro-6H-pyrazolo[3,4-b]pyridin-6-one]	160 nM
O=C1Nc2[nH]nc(C3CCN(c4cncc(C(F)(F)F)c4)CC3)c2[C@@H](C(F)(F)F)[C@H]1O (single isomer, unassigned) [Example 38, (+)-cis-5-Hydroxy-4-(trifluoromethyl)-3-{1-[5-(trifluoromethyl)pyridin-3-yl]piperidin-4-yl}-1,4,5,7-tetrahydro-6H-pyrazolo[3,4-b]pyridin-6-one]	24 nM
O=C1Nc2[nH]nc(C3CCN(c4ccc(-c5ccccc5)nn4)CC3)c2[C@@H](C(F)(F)F)[C@H]1O (single isomer, unassigned) [Example 29, cis-5-hydroxy-3-[1-(6-phenylpyridazin-3-yl)piperidin-4-yl]-4-(trifluoromethyl)-1,4,5,7-tetrahydro-6H-pyrazolo[3,4-b]pyridin-6-one]	11 nM

Continued, values first:

EC50	Structure (SMILES)
340 nM	O=C1Nc2[nH]nc(C3CCN(c4cnc(C(F)(F)F)cn4)CC3)c2[C@@H](C(F)(F)F)[C@@H]1O (racemic) [Example 10, trans-5-Hydroxy-4-(trifluoromethyl)-3-{1-[5-(trifluoromethyl)pyrazin-2-yl]piperidin-4-yl}-1,4,5,7-tetrahydro-6H-pyrazolo[3,4-b]pyridin-6-one]
8 nM	O=C1Nc2[nH]nc(C3CCN(c4ccc(C(F)(F)F)nc4)CC3)c2[C@@H](C(F)(F)F)[C@H]1O (single isomer, unassigned) [Example 23, (+)-cis-5-Hydroxy-4-(trifluoromethyl)-3-{1-[6-(trifluoromethyl)pyridin-3-yl]piperidin-4-yl}-1,4,5,7-tetrahydro-6H-pyrazolo[3,4-b]pyridin-6-one]
35 nM	O=C1Nc2[nH]nc(C3CCN(c4ccc(C(F)(F)F)nn4)CC3)c2[C@@H](C(F)(F)F)[C@H]1O (single isomer, unassigned) [Example 19, (+)-cis-5-Hydroxy-4-(trifluoromethyl)-3-{1-[6-(trifluoromethyl)pyridazin-3-yl]piperidin-4-yl}-1,4,5,7-tetrahydro-6H-pyrazolo[3,4-b]pyridin-6-one]
160 nM	N#Cc1cnc(N2CCC(c3n[nH]c4c3[C@@H](C(F)(F)F)[C@@H](O)C(=O)N4)CC2)cn1 (single isomer, unassigned) [Example 28, (+)-5-{4-[cis-5-Hydroxy-6-oxo-4-(trifluoromethyl)-4,5,6,7-tetrahydro-1H-pyrazolo[3,4-b]pyridin-3-yl]piperidin-1-yl}pyrazine-2-carbonitrile]
880 nM	O=C1Nc2[nH]nc(C3CCN(c4ccc(C(F)(F)F)cn4)CC3)c2[C@@H](C(F)(F)F)[C@@H]1O (racemic) [Example 1, trans-5-Hydroxy-4-(trifluoromethyl)-3-{1-[5-(trifluoromethyl)pyridin-2-yl]piperidin-4-yl}-1,4,5,7-tetrahydro-6H-pyrazolo[3,4-b]pyridin-6-one]
62 nM	O=C1Nc2[nH]nc(C3CCN(c4cccc(C(F)(F)F)n4)CC3)c2[C@@H](C(F)(F)F)[C@H]1O (racemic) [Example 16, cis-5-Hydroxy-4-(trifluoromethyl)-3-{1-[6-(trifluoromethyl)pyridin-2-yl]piperidin-4-yl}-1,4,5,7-tetrahydro-6H-pyrazolo[3,4-b]pyridin-6-one]
29 nM	O=C1Nc2[nH]nc(C3CCN(c4cnc(C(F)(F)F)cn4)CC3)c2[C@@H](C(F)(F)F)[C@H]1O (racemic) [Example 11, cis-5-Hydroxy-4-(trifluoromethyl)-3-{l-[5-(trifluoromethyl)pyrazin-2-yl]piperidin-4-yl}-1,4,5,7-tetrahydro-6H-pyrazolo[3,4-b]pyridin-6-one]
